Test results: patent US4642314A, “Antiulcer compounds” (Nisshin Flour Milling Co., Ltd., priority 1984, dated 1987)

Columns and labels:
[1] = tested on: mice; test: acute toxicity (LD50), intraperitoneal route in mice; assay type: in vivo
[2] = as above; assay type: in vivo; settings: mouse, in vivo, ip
[3] = tested on: acetic acid-induced ulcer; test: Acetic acid-induced ulcer (Curative test); assay type: in vivo, rat (male SD rats); settings: Table 2; rat, 0.05 ml of 15% acetic acid underneath the serosa; lesion area on 14th day
Method: (§1) In the case of reserpine-induced ulcer, the assay was performed according to the description in "Arch. Int. Pharmacodym. Ther. 147,113 (1964)", and in the case of acetic acid-induced ulcer, the assay was performed according to the method described in "Jap. J. Pharmac. 19,418 (1969)", by inducing experimental ulcer in rat and evaluating the effect thereon of the compounds tested.
Groups of rats, each consisting of 6 male SD rats weighing 150-200 g were used. The stomach of ether-anesthesized rat was exposed and while taking acre not to injure blood vessels, 0.05 ml of 15% aqueous acetic acid solution was injected underneath the serosa. On the 14th day, the rats were killed with chloroform, the stomach taken out and the area of the infected lesion measured.
The curative ratio was calculated using the above equation: [formula]

[4] = tested on: reserpine-induced ulcer; test: Reserpine-induced ulcer (Preventive test); assay type: in vivo, rat (male SD rats); settings: Table 1; rat, 100 mg/kg oral, 30 min before reserpine 15 mg/kg i.p.; evaluated at 18 h; read-out: Preventive effect (preventive ratio)
Method: as §1
Groups of rats, each consisting of 6 male SD rats weighing 150-200 g were used. After 24 hours' fasting, a sample compound was orally administered to the rat at the dose of 100 mg/kg body weight, and 30 minutes after the administration, reserpine was intraperitoneally injected at the dose of 15 mg/kg body weight. Eighteen hours after the administration, the rats were killed with chloroform. The stomach was taken out, and severity of the hemorrhaging lesion was evaluated according to the method as above ("Arch. Int. Pharmacodym. Ther. 147,113 (1964)).
The preventive ratio was calculated using the following equation, [formula] wherein the control animals were intraperitoneally given reserpine only, at the dose of 15 mg/kg body weight.

Row | Structure (SMILES) | LD50 ([1]; Table 1) | LD50 ([2]; Table 2) | Curative effect (curative ratio) [3] | inhibition in vivo at 100 mg/kg [4] | LD50 ([1]; Table 2) | LD50 ([2]; Table 1)
1 | CC(=O)OCC=C(C)CCC=C(C)CCC=C(C)CCC=C(C)CCC=C(C)CCC=C(C)CCC=C(C)CCC=C(C)CCC=C(C)CCC=C(C)C [Decaprenyl acetate] | > 5000 mg/kg | > 5000 mg/kg | + (10%-25%) | 40 to 60% | – | –
2 | CC(C)=CCCC(C)=CCCC(C)=CCCC(C)=CCCC(C)=CCCC(C)=CCCC(C)=CCCC(C)=CCCC(C)=CCCC(C)=CCCC(=O)OCC=C(C)CCC=C(C)CCC=C(C)CCC=C(C)CCC=C(C)CCC=C(C)CCC=C(C)CCC=C(C)CCC=C(C)CCC=C(C)C [Decaprenyl decaprenylacetate] | – | – | + (10%-25%) | – | > 5000 mg/kg | –
3 | CCCCCCCC/C=C/CCCCCCCC(=O)OCC=C(C)CCC=C(C)CCC=C(C)CCC=C(C)CCC=C(C)CCC=C(C)CCC=C(C)CCC=C(C)CCC=C(C)CCC=C(C)C [Decaprenyl elaidate] | – | – | – | 10 to 40% | – | > 5000 mg/kg
4 | CCCCCCCC/C=C\CCCCCCCC(=O)OCC=C(C)CCC=C(C)CCC=C(C)CCC=C(C)CCC=C(C)CCC=C(C)CCC=C(C)CCC=C(C)CCC=C(C)CCC=C(C)C [Decaprenyl oleate] | > 5000 mg/kg | > 5000 mg/kg | ++ (25%-40%) | 40 to 60% | – | –
5 | CC(C)=CCCC(C)=CCCC(C)=CCCC(C)=CCCC(C)=CCCC(C)=CCCC(C)=CCCC(C)=CCCC(C)=CCCC(C)=CCOC(=O)CCC=C(C)CCCC(C)CCCC(C)CCCC(C)C (stereo not drawn) [Decaprenyl phytylacetate] | > 5000 mg/kg | > 5000 mg/kg | ++ (25%-40%) | 40 to 60% | – | –
6 | CC(C)=CCCC(C)=CCCC(C)=CCCC(C)=CCCC(C)=CCCC(C)=CCCC(C)=CCCC(C)=CCCC(C)=CCCC(C)=CCCC(=O)O [Decaprenylacetic acid] | > 4000 mg/kg | > 4000 mg/kg | +++ (40%-) | 40 to 60% | – | –
7 | CCCCCCCC/C=C\CCCCCCCC(=O)OCCC(C)CCCC(C)CCCC(C)CCCC(C)C (stereo not drawn) [Dihydrophytyl oleate] | – | – | – | 10 to 40% | – | > 4000 mg/kg
8 | CCCCCCCCCCCCCCCCCC(=O)OCCC(C)CCCC(C)CCCC(C)CCCC(C)C (stereo not drawn) [Dihydrophytyl stearate] | – | – | – | 10 to 40% | – | > 4000 mg/kg
9 | CC(C)=CCCC(C)=CCCC(C)=CCCC(=O)OCC=C(C)CCC=C(C)C [Gefarnate, 3,7-dimethyl-2,6-octadienyl-5,9,13-trimethyl-4,8,12-tetradecatrienoate, reference compound] | – | – | ± (-10%) | 10 to 40% | – | –
10 | C=CC(C)(O)CCC=C(C)CCC=C(C)CCC=C(C)CCC=C(C)CCC=C(C)CCC=C(C)CCC=C(C)CCC=C(C)CCC=C(C)C (stereo not drawn) [Isodecaprenol] | – | – | ++ (25%-40%) | 10 to 40% | > 4000 mg/kg | > 4000 mg/kg
11 | C=CC(C)(CCCC(C)CCCC(C)CCCC(C)C)OC(=O)CCCCCCC/C=C\CCCCCCCC (stereo not drawn) [Isophytyl oleate] | > 4000 mg/kg | > 4000 mg/kg | +++ (40%-) | > 60% | – | –
12 | C/C(=C\CCC(=O)OC(C)C)CCC[C@H](C)CCC[C@H](C)CCCC(C)C [Isopropyl phytylacetate] | – | – | – | 10 to 40% | – | > 5000 mg/kg
13 | COC(=O)CC/C=C(\C)CCC[C@H](C)CCC[C@H](C)CCCC(C)C [Methyl phytlacetate, Methyl phytylacetate] | – | – | – | 10 to 40% | – | > 5000 mg/kg
14 | CC(=O)OC/C=C(\C)CCC[C@H](C)CCC[C@H](C)CCCC(C)C [Phytyl acetate] | > 5000 mg/kg | > 5000 mg/kg | + (10%-25%) | 40 to 60% | – | –
15 | CCCCCCCC/C=C/CCCCCCCCCCCC(=O)OC/C=C(\C)CCC[C@H](C)CCC[C@H](C)CCCC(C)C [Phytyl brassidate] | > 4000 mg/kg | > 4000 mg/kg | ++ (25%-40%) | 10 to 40% | – | –
16 | CC(C)=CCCC(C)CCCC(=O)OC/C=C(\C)CCC[C@H](C)CCC[C@H](C)CCCC(C)C (stereo partly drawn) [Phytyl citronellylacetate] | – | – | – | 10 to 40% | – | > 5000 mg/kg
17 | CC(C)=CCCC(C)=CCCC(C)=CCCC(C)=CCCC(C)=CCCC(C)=CCCC(C)=CCCC(C)=CCCC(C)=CCCC(C)=CCCC(=O)OCC=C(C)CCCC(C)CCCC(C)CCCC(C)C (stereo not drawn) [Phytyl decaprenylacetate] | > 4000 mg/kg | > 4000 mg/kg | + (10%-25%) | 10 to 40% | – | –
18 | CCCCCCCC/C=C\CCCCCCCCCCCC(=O)OC/C=C(\C)CCC[C@H](C)CCC[C@H](C)CCCC(C)C [Phytyl erucate] | – | – | – | 10 to 40% | – | > 4000 mg/kg

Row | Structure (SMILES) | LD50 ([1]; Table 1) | LD50 ([2]; Table 2) | Curative effect (curative ratio) [3] | inhibition in vivo at 100 mg/kg [4] | LD50 ([1]; Table 2) | LD50 ([2]; Table 1)
19 | CC(C)=CCCC(C)=CCCC(C)=CCCC(=O)OC/C=C(\C)CCC[C@H](C)CCC[C@H](C)CCCC(C)C [Phytyl farnesylacetate] | – | – | – | 10 to 40% | – | > 5000 mg/kg
20 | CC(C)=CCC/C(C)=C/CCC(=O)OC/C=C(\C)CCC[C@H](C)CCC[C@H](C)CCCC(C)C [Phytyl geranylacetate] | – | – | – | 10 to 40% | – | > 5000 mg/kg
21 | CCCCCCCCCCCC(=O)OC/C=C(\C)CCC[C@H](C)CCC[C@H](C)CCCC(C)C [Phytyl laurate] | – | – | – | 40 to 60% | – | > 5000 mg/kg
22 | CCCCCCCC/C=C\CCCCCCCC(=O)OC/C=C(\C)CCC[C@H](C)CCC[C@H](C)CCCC(C)C [Phytyl oleate] | > 4000 mg/kg | > 4000 mg/kg | +++ (40%-) | > 60% | – | –
23 | CCCCCCCCCCCCCCCC(=O)OC/C=C(\C)CCC[C@H](C)CCC[C@H](C)CCCC(C)C [Phytyl palmitate] | – | – | – | 40 to 60% | – | > 5000 mg/kg
24 | C/C(=C\CCC(=O)OC/C=C(\C)CCC[C@H](C)CCC[C@H](C)CCCC(C)C)CCC[C@H](C)CCC[C@H](C)CCCC(C)C [Phytyl phytylacetate] | – | – | – | 40 to 60% | – | > 5000 mg/kg
25 | CCCCCCCCCCCCCCCCCC(=O)OC/C=C(\C)CCC[C@H](C)CCC[C@H](C)CCCC(C)C [Phytyl stearate] | – | > 4000 mg/kg | + (10%-25%) | – | – | –
26 | CC(=O)OCC=C(C)CCC=C(C)CCC=C(C)CCC=C(C)CCC=C(C)CCC=C(C)CCC=C(C)CCC=C(C)CCC=C(C)C [Solanesyl acetate] | – | – | – | 40 to 60% | – | > 4000 mg/kg
27 | CC(C)=CCCC(C)=CCCC(C)=CCCC(C)=CCCC(C)=CCCC(C)=CCCC(C)=CCCC(C)=CCCC(C)=CCCC(C)=CCCC(=O)OCC=C(C)CCC=C(C)CCC=C(C)CCC=C(C)CCC=C(C)CCC=C(C)CCC=C(C)CCC=C(C)CCC=C(C)C [Solanesyl decaprenylacetate] | – | – | – | 10 to 40% | – | > 4000 mg/kg
28 | CC(C)=CCCC(C)=CCCC(C)=CCCC(=O)OCC=C(C)CCC=C(C)CCC=C(C)CCC=C(C)CCC=C(C)CCC=C(C)CCC=C(C)CCC=C(C)CCC=C(C)C [Solanesyl farnesylacetate] | – | – | – | 10 to 40% | – | > 4000 mg/kg
29 | CC(C)=CCCC(C)=CCCC(=O)OCC=C(C)CCC=C(C)CCC=C(C)CCC=C(C)CCC=C(C)CCC=C(C)CCC=C(C)CCC=C(C)CCC=C(C)C [Solanesyl geranylacetate] | – | > 4000 mg/kg | + (10%-25%) | – | – | –
30 | CC(C)=CCCC(C)=CCCC(C)=CCCC(C)=CCCC(C)=CCCC(C)=CCCC(C)=CCCC(C)=CCCC(C)=CCOC(=O)CCC=C(C)CCCC(C)CCCC(C)CCCC(C)C (stereo not drawn) [Solanesyl phytylacetate] | – | – | – | 10 to 40% | – | > 4000 mg/kg
31 | CC(C)=CCCC(C)=CCCC(C)=CCCC(C)=CCCC(C)=CCCC(C)=CCCC(C)=CCCC(C)=CCCC(C)=CCCC(=O)OCC=C(C)CCC=C(C)CCC=C(C)CCC=C(C)CCC=C(C)CCC=C(C)CCC=C(C)CCC=C(C)CCC=C(C)C [Solanesyl solanesylacetate] | – | – | – | 10 to 40% | – | > 4000 mg/kg
32 | CC(C)=CCCC(C)=CCCC(C)=CCCC(C)=CCCC(C)=CCCC(C)=CCCC(C)=CCCC(C)=CCCC(C)=CCCC(=O)O [Solanesylacetic acid] | – | > 4000 mg/kg | + (10%-25%) | – | – | –
33 | CC(C)=CCCC(C)CCCC(=O)Oc1c(C)c(C)c2c(c1C)CCC(C)(CCCC(C)CCCC(C)CCCC(C)C)O2 (stereo not drawn) [α-Tocopheryl citronellylacetate] | – | – | – | > 60% | – | > 4000 mg/kg
34 | CC(C)=CCCC(C)=CCCC(C)=CCCC(C)=CCCC(C)=CCCC(C)=CCCC(C)=CCCC(C)=CCCC(C)=CCCC(C)=CCCC(=O)Oc1c(C)c(C)c2c(c1C)CCC(C)(CCCC(C)CCCC(C)CCCC(C)C)O2 (stereo not drawn) [α-Tocopheryl decaprenylacetate] | – | – | – | 10 to 40% | – | > 4000 mg/kg
35 | CC(C)=CCCC(C)=CCCC(C)=CCCC(C)=CCCC(C)=CCCC(C)=CCCC(C)=CCCC(C)=CCCC(C)=CCCC(=O)Oc1c(C)c(C)c2c(c1C)CCC(C)(CCCC(C)CCCC(C)CCCC(C)C)O2 (stereo not drawn) [α-Tocopheryl solanesylacetate] | – | – | – | 40 to 60% | – | > 4000 mg/kg
